Test results taken from the supplement of paper PMC10733146.

Experiments:
Assay in all cases: viability relative to DMSO control (fraction); higher = less drug effect (more viable cells)
Conditions in all cases: 48 h
[1] = compound: Nc1nc2n[nH]nc2c(=O)[nH]1 [8-Azaguanin]
Outline: (§1)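 Viability is given as CellTiter-Glo luminescence relative to the median of 16 inner DMSO wells. Fresh or cryopreserved primary mononuclear tumour cells from blood, bone marrow (both Ficoll-isolated) or processed lymph node were plated at 4 × 10^4 cells per well in 384-well plates against five pre-plated compound concentrations, one well each. Incubation lasted 48 h at 37 °C and 5% CO2 in RPMI-1640 with penicillin/streptomycin, L-glutamine and human serum.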

[2] = compound: CC(C)C[C@H](NC(=O)[C@H](Cc1ccccc1)NC(=O)c1cnccn1)B(O)O [Bortezomib]
Outline: as §1

[3] = compound: CC(=O)[C@]1(O)Cc2c(O)c3c(c(O)c2[C@@H](O[C@H]2C[C@H](N)[C@H](O)[C@H](C)O2)C1)C(=O)c1ccccc1C3=O [Idarubicin]
Outline: as §1

[4] = compound: COc1cc(OC)c(/C=C/S(=O)(=O)Cc2ccc(OC)c(NCC(=O)O)c2)c(OC)c1 [Rigosertib]
Outline: as §1

[5] = compound: CC[C@]1(O)C[C@H]2CN(CCc3c([nH]c4ccccc34)[C@@](C(=O)OC)(c3cc4c(cc3OC)N(C=O)[C@H]3[C@@](O)(C(=O)OC)[C@H](OC(C)=O)[C@]5(CC)C=CCN6CC[C@]43[C@@H]65)C2)C1 [Vincristine]
Outline: as §1

[6] = compound: CC(C)(O)CNc1nc(Nc2ccnc(C(F)(F)F)c2)nc(-c2cccc(C(F)(F)F)n2)n1 [AG-221 (Enasidinib)]
Outline: as §1

[7] = compound: OC[C@H]1O[C@@H](n2cnc3c2N=CNC[C@H]3O)C[C@@H]1O [Pentostatin]
Outline: as §1

[8] = compound: NC(=O)c1ccc(I)c([N+](=O)[O-])c1 [Iniparib]
Outline: as §1

[9] = compound: COc1nc(N)nc2c1ncn2[C@@H]1O[C@H](CO)[C@@H](O)[C@@H]1O [Nelarabine]
Outline: as §1

[10] = compound: CN(C)C(=O)c1cc2cnc(Nc3ccc(N4CCNCC4)cn3)nc2n1C1CCCC1 [Ribociclib]
Outline: as §1

[11] = compound: CCCS(=O)(=O)Nc1ccc(F)c(C(=O)c2c[nH]c3ncc(-c4ccc(Cl)cc4)cc23)c1F [Vemurafenib]
Outline: as §1

[12] = compound: Cc1ccc(NC(=O)c2ccc(CN3CCN(C)CC3)cc2)cc1Nc1nccc(-c2cccnc2)n1 [Imatinib]
Outline: as §1

[13] = compound: NC(=O)Nc1cc(-c2cccc(F)c2)sc1C(=O)N[C@H]1CCCNC1 [AZD7762]
Outline: as §1

[14] = compound: Cc1[nH]c2ccccc2c1CCNCc1ccc(/C=C/C(=O)NO)cc1 [Panobinostat]
Outline: as §1

[15] = compound: C#CCC(Cc1cnc2nc(N)nc(N)c2n1)c1ccc(C(=O)N[C@@H](CCC(=O)O)C(=O)O)cc1 [Pralatrexate]
Outline: as §1

primary DLBCL patient cells (S082)
viability ([1]; 0.032 µM): 1.01
viability ([1]; 0.16 µM): 1.05
viability ([1]; 0.8 µM): 0.976
viability ([1]; 4 µM): 0.918
viability ([1]; 20 µM): 0.531
viability ([2]; 0.008 µM): 0.846
viability ([2]; 0.04 µM): 0.987
viability ([2]; 0.2 µM): 0.842
viability ([2]; 1 µM): 0.899
viability ([2]; 5 µM): 0.882
viability ([3]; 0.024 µM): 0.992
viability ([3]; 0.12 µM): 0.622
viability ([3]; 0.6 µM): 0.328
viability ([3]; 3 µM): 0.0161
viability ([3]; 15 µM): 0.0147
viability ([4]; 0.008 µM): 0.954
viability ([4]; 0.04 µM): 0.973
viability ([4]; 0.2 µM): 0.931
viability ([4]; 1 µM): 0.771
viability ([4]; 5 µM): 0.524
viability ([5]; 0.016 µM): 0.609
viability ([5]; 0.08 µM): 0.561
viability ([5]; 0.4 µM): 0.474
viability ([5]; 2 µM): 0.446
viability ([5]; 10 µM): 0.396
viability ([6]; 0.024 µM): 0.848
viability ([6]; 0.12 µM): 0.871
viability ([6]; 0.6 µM): 1.09
viability ([6]; 3 µM): 1
viability ([6]; 15 µM): 1.06
viability ([7]; 0.03 µM): 0.964
viability ([7]; 0.15 µM): 0.887
viability ([7]; 0.75 µM): 0.915
viability ([7]; 3.75 µM): 0.825
viability ([7]; 18.76 µM): 0.837
viability ([8]; 0.024 µM): 1.09
viability ([8]; 0.12 µM): 1.06
viability ([8]; 0.6 µM): 1.01
viability ([8]; 3 µM): 1.06
viability ([8]; 15 µM): 1.01
viability ([9]; 0.024 µM): 1.06
viability ([9]; 0.12 µM): 1.05
viability ([9]; 0.6 µM): 0.961
viability ([9]; 3 µM): 1
viability ([9]; 15 µM): 0.76
viability ([10]; 0.024 µM): 0.925
viability ([10]; 0.12 µM): 0.946
viability ([10]; 0.6 µM): 0.935
viability ([10]; 3 µM): 0.938
viability ([10]; 15 µM): 1.02
viability ([11]; 0.024 µM): 0.979
viability ([11]; 0.12 µM): 0.989
viability ([11]; 0.6 µM): 0.988
viability ([11]; 3 µM): 1.03
viability ([11]; 15 µM): 1.05
viability ([12]; 0.016 µM): 1.08
viability ([12]; 0.4 µM): 1.2
viability ([12]; 2 µM): 1.16
viability ([12]; 10 µM): 1.36
viability ([13]; 0.024 µM): 0.76
viability ([13]; 0.12 µM): 0.417
viability ([13]; 0.6 µM): 0.122
viability ([13]; 3 µM): 0.152
viability ([13]; 15 µM): 0.125
viability ([14]; 0.00064 µM): 0.781
viability ([14]; 0.0032 µM): 0.404
viability ([14]; 0.016 µM): 0.0415
viability ([14]; 0.08 µM): 0.0242
viability ([14]; 0.4 µM): 0.0275
viability ([15]; 0.024 µM): 1.02
viability ([15]; 0.12 µM): 1.15
viability ([15]; 0.6 µM): 0.992
viability ([15]; 3 µM): 1.08
viability ([15]; 15 µM): 1.05

primary FL patient cells (S022)
viability ([1]; 0.032 µM): 0.987
viability ([1]; 0.16 µM): 1.01
viability ([1]; 0.8 µM): 0.843
viability ([1]; 4 µM): 0.582
viability ([1]; 20 µM): 0.363
viability ([2]; 0.008 µM): 1
viability ([2]; 0.04 µM): 1.05
viability ([2]; 0.2 µM): 0.957
viability ([2]; 1 µM): 0.931
viability ([2]; 5 µM): 0.885
viability ([3]; 0.024 µM): 0.94
viability ([3]; 0.12 µM): 0.509
viability ([3]; 0.6 µM): 0.178
viability ([3]; 3 µM): 0.182
viability ([3]; 15 µM): 0.0171
viability ([4]; 0.008 µM): 1.02
viability ([4]; 0.04 µM): 0.951
viability ([4]; 0.2 µM): 1.02
viability ([4]; 1 µM): 0.919
viability ([4]; 5 µM): 0.865
viability ([5]; 0.016 µM): 0.479
viability ([5]; 0.08 µM): 0.448
viability ([5]; 0.4 µM): 0.377
viability ([5]; 2 µM): 0.349
viability ([5]; 10 µM): 0.255
viability ([6]; 0.024 µM): 0.807
viability ([6]; 0.12 µM): 0.799
viability ([6]; 0.6 µM): 0.781
viability ([6]; 3 µM): 0.67
viability ([6]; 15 µM): 0.687
viability ([7]; 0.03 µM): 1.1
viability ([7]; 0.15 µM): 0.939
viability ([7]; 0.75 µM): 1.13
viability ([7]; 3.75 µM): 0.877
viability ([7]; 18.76 µM): 1.02
viability ([8]; 0.024 µM): 1.1
viability ([8]; 0.12 µM): 0.916
viability ([8]; 0.6 µM): 0.945
viability ([8]; 3 µM): 0.937
viability ([8]; 15 µM): 0.92
viability ([9]; 0.024 µM): 1.03
viability ([9]; 0.12 µM): 1.1
viability ([9]; 0.6 µM): 0.93
viability ([9]; 3 µM): 0.902
viability ([9]; 15 µM): 0.811
viability ([10]; 0.024 µM): 1.01
viability ([10]; 0.12 µM): 1.01
viability ([10]; 0.6 µM): 1.02
viability ([10]; 3 µM): 0.941
viability ([10]; 15 µM): 0.737
viability ([11]; 0.024 µM): 0.992
viability ([11]; 0.12 µM): 1.17
viability ([11]; 0.6 µM): 0.965
viability ([11]; 3 µM): 1.05
viability ([11]; 15 µM): 1.22
viability ([12]; 0.08 µM): 1.06
viability ([12]; 0.4 µM): 1.05
viability ([12]; 2 µM): 0.946
viability ([12]; 10 µM): 0.909
viability ([13]; 0.024 µM): 0.724
viability ([13]; 0.12 µM): 0.79
viability ([13]; 0.6 µM): 0.725
viability ([13]; 3 µM): 0.785
viability ([13]; 15 µM): 0.655
viability ([14]; 0.00064 µM): 0.899
viability ([14]; 0.0032 µM): 0.843
viability ([14]; 0.016 µM): 0.514
viability ([14]; 0.08 µM): 0.23
viability ([14]; 0.4 µM): 0.17
viability ([15]; 0.024 µM): 1
viability ([15]; 0.12 µM): 0.996
viability ([15]; 0.6 µM): 1
viability ([15]; 3 µM): 1.04
viability ([15]; 15 µM): 1.02
